In patent US10253039B2, “Inhibitors of bacterial DNA gyrase with efficacy against gram-negative bacteria” (priority 2014, dated 2019):
≈ marks a conversion by molar mass, not a printed value.

How the values were obtained:
Format in all cases: cell-based
[1] = test system: E. coli BW25113; assay: MIC, microdilution in 96-well plates; conditions: Escherichia coli, BW25113, B: E. coli BW25113; read-out: MIC
Outline: (§1)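 Broth microdilution per CLSI guidance: each strain was diluted 1:10000 from a growing subculture into Luria-Bertani medium, and compound was serially diluted 2-fold in triplicate alongside a DMSO column. Plates were shaken at 37° C. for 16-18 hours; MIC is the lowest concentration showing no visible turbidity.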

[2] = test system: Edwardsiella tarda; assay: MIC, microdilution in 96-well plates; conditions: D: Edwardsiella tarda
Outline: as §1

[3] = test system: Staphylococcus epidermidis; assay: MIC, 20-strain panel
Outline: as §1

[4] = test system: E. coli JW5503 (deltolC); assay: MIC, 20-strain panel; conditions: Escherichia coli, C: E. coli JW5503 (deltolC)
Outline: as §1

[5] = test system: Klebsiella pneumoniae subsp. pneumoniae; assay: MIC, 20-strain panel; conditions: E: Klebsiella pneumoniae subsp. pneumoniae
Outline: as §1

[6] = test system: E. coli MG1655; assay: MIC, 20-strain panel; conditions: Escherichia coli, MG1655, A: E. coli MG1655; read-out: MIC
Outline: as §1

[7] = test system: Streptococcus pyogenes; assay: MIC, 20-strain panel
Outline: as §1

[8] = test system: Staphylococcus aureus subsp. aureus; assay: MIC, 20-strain panel; conditions: H: Staphylococcus aureus subsp. aureus, read-out: MIC
Outline: as §1

[9] = test system: Shigella flexneri; assay: MIC, 20-strain panel; conditions: G: Shigella flexneri
Outline: as §1

[10] = test system: Streptococcus agalactiae; assay: MIC, 20-strain panel
Outline: as §1

[11] = test system: Staphylococcus saprophyticus subsp. saprophyticus; assay: MIC, 20-strain panel
Outline: as §1

[12] = test system: Salmonella enterica subsp. enterica typhimurium; assay: MIC, 20-strain panel; conditions: F: Salmonella enterica subsp. enterica Typhimurium
Outline: as §1

Row | Structure (SMILES) | MIC [1] [µg/mL] | MIC [2] [µg/mL] | MIC [3] [µg/mL] | MIC [4] [µg/mL] | MIC [5] [µg/mL] | MIC [6] [µg/mL] | MIC [7] [µg/mL] | MIC [8] [µg/mL] | MIC [9] [µg/mL] | MIC [10] [µg/mL] | MIC [11] [µg/mL] | MIC [12] [µg/mL]
1 | O=S(=O)(N[C@@H]1CCN(Cc2ccc(OC3CC3)cc2)C1)c1cccnc1 [Compound 104] | > 8 | > 8 | > 8 | > 8 | > 8 | > 8 | > 8 | > 8 | > 8 | > 8 | > 8 | > 8
2 | Cc1ccncc1S(=O)(=O)N[C@@H]1CCN(Cc2ccc(OC(C)C)cc2)C1 [Compound 121] | > 8 | > 8 | > 8 | ~8 (≈ 20.5 µM) | > 8 | > 8 | > 8 | > 8 | > 8 | > 8 | > 8 | > 8
3 | O=S(=O)(N[C@@H]1CCN(Cc2ccc(-c3ccccc3Cl)cc2)C1)c1cccc(OC(F)(F)F)c1 [Compound 75] | > 8 | > 8 | > 8 | ~8 (≈ 15.7 µM) | > 8 | > 8 | ~8 (≈ 15.7 µM) | > 8 | > 8 | > 8 | > 8 | > 8
4 | O=S(=O)(N[C@@H]1CCN(Cc2ccc(-c3ccccc3)cc2)C1)c1cc(S(=O)(=O)c2ccccc2)cs1 [Compound 37] | > 8 | > 8 | > 8 | > 8 | > 8 | > 8 | > 8 | > 8 | > 8 | > 8 | > 8 | > 8
5 | CC(=O)c1cc(S(=O)(=O)N[C@@H]2CCN(Cc3ccc(-c4ccccc4)cc3)C2)ccc1C [Compound 68] | > 8 | > 8 | 8 (≈ 17.8 µM) | 8 (≈ 17.8 µM) | > 8 | > 8 | > 8 | > 8 | > 8 | > 8 | > 8 | > 8
6 | Cc1c(S(=O)(=O)N[C@@H]2CCN(Cc3ccc(OC4CC4)cc3)C2)sc2ccc(Cl)cc12 [Compound 85] | > 8 | > 8 | 4 (≈ 8.38 µM) | ~8 (≈ 16.8 µM) | > 8 | > 8 | 8 (≈ 16.8 µM) | ~8 (≈ 16.8 µM) | > 8 | > 8 | > 8 | > 8
7 | CC(C)(C)Oc1ccc(CN2CC[C@@H](NS(=O)(=O)c3cccc(C(F)(F)F)c3)C2)cc1 [Compound 23] | > 8 | > 8 | > 8 | 0.5 (≈ 1.1 µM) | > 8 | > 8 | > 8 | > 8 | > 8 | > 8 | > 8 | > 8
8 | CC(C)Oc1ccc(CN2CC[C@@H](NS(=O)(=O)c3cccc(C(F)(F)F)c3)C2)cc1 [Compound 18] | > 8 | > 8 | > 8 | 0.5 (≈ 1.13 µM) | > 8 | > 8 | > 8 | > 8 | > 8 | > 8 | > 8 | 8 (≈ 18.1 µM)
9 | Cc1ccc(C#N)cc1S(=O)(=O)N[C@@H]1CCN(Cc2ccc(OC(C)C)cc2)C1 [Compound 112] | > 8 | > 8 | > 8 | 0.25 (≈ 0.605 µM) | > 8 | > 8 | > 8 | > 8 | > 8 | > 8 | > 8 | 4 (≈ 9.67 µM)
10 | O=S(=O)(N[C@@H]1CCN(Cc2cn(-c3ccccc3)nn2)C1)c1cccc(C(F)(F)F)c1 [Compound 108] | > 8 | > 8 | > 8 | > 8 | > 8 | > 8 | > 8 | > 8 | > 8 | > 8 | > 8 | > 8
